How the values were obtained:
[1] = test system: Plasmacytoma, Malignant Plasma Cells; test: CD38 surface expression after lenalidomide (FACS, ABC); format: cell-based, human
Description: Bone marrow samples (4-10 ml aspirate) from multiple myeloma patients and extramedullary tumor plasmacytoma samples were obtained after informed consent from the Klinikum rechts der Isar (“KrdI”) (Munich, Germany). Samples were subjected to centrifugation, and further plasma cell enrichment was achieved via magnetic-activated cell sorting.
Cells were stained with a directly labelled QuantiBRITE™ CD38-PE antibody (Becton Dickinson GmbH, Clone HB7, CAT #342371), which is specific for CD38. The “Antibodies Bound Per Cell” (ABC's) were determined using the flow cytometry based QuantiBRITE™ system, which measures the geometric mean (GeoMean) per cell. Conversion of measured GeoMean into correlating ABC amount per cell was done with GraphPad PRISM™ software. The ABC values are assumed to correlate with the number of CD38 molecules per cell, since QuantiBRITE™ CD38-PE carries one PE molecule per antibody.
To determine whether lenalidomide induced upregulation of CD38 in the multiple myeloma and plasmacytoma cells of Table 1, the cell lines were incubated with 100 μM lenalidomide and, subsequently, CD38 surface expression was analyzed by FACS.
Around 2×10^5 cells of each of the cells lines of Table 1 were plated on 48-well dishes in standard RPMI medium. Lenalidomide, purchased from Selleck Chemicals (LLC S1029, CAS No. 191732-6; Batch: S10290), was applied to respective wells to a final concentration of 100 μM in a volume of 750 μl containing 20% FCS and 0.1% DMSO.
Cells were resuspended by gentle pipetting and 250 μl of cell suspension per incubation period were transferred into a well of a 96-well round bottom plate. Cells were washed by centrifugation for 1 min at 700×g and were resuspended in 150 μl of cold FACS buffer (1×PBS supplemented with 3% FCS). Cells were again pelleted down by centrifugation and were resuspended in 150 μl of FACS buffer containing 15 μg/ml of anti-CD38 antibody (MOR202, IgG1) or control antibody MOR03207 and incubated for 1 h on ice. […]

RAMOS cells = test: RAMOS non-Hodgkin tumor SCID mouse survival model, MOR202 and lenalidomide; format: in vivo, SCID mice
Description: Sixty-eight female SCID mice were pre-treated with Cyclophosphamide (75 mg/kg, i.p., twice daily) for two days prior to RAMOS cell inoculation (Day −5 and −4). On the day of inoculation (Day −3), all mice were inoculated with 1×10^6 RAMOS cells each intravenously into the tail vein. Sixty-four of the mice were randomised by body weight into eight groups of eight.
The study continued for 98 days and the measured endpoint was survival.

Nc1cccc2c1CN(C1CCC(=O)NC1=O)C2=O (stereo not shown) [LEN, lenalidomide]
Absolute number of ABC (CD38 expression) LEN (extrapolated) ([1]; 100 μM lenalidomide): 69,000 ABC
Absolute number of ABC (CD38 expression) INCREASE ([1]; 100 μM lenalidomide vs basal): 39,000 ABC
Fold increase (CD38 expression) ([1]; 100 μM lenalidomide vs basal): 2.3 fold
Number of mice alive at study termination (day 98) (RAMOS cells; LEN 100 mg/kg (Table 14) p.o., MOR202 1 mg/kg i.v.): 0/7
Day of death (post-inoculation) Mean (RAMOS cells; LEN 100 mg/kg (Table 14) p.o., MOR202 1 mg/kg i.v. twice weekly, study 98 days): 21.4 days
% ILS (based on median death day) (RAMOS cells; LEN 100 mg/kg (Table 14) p.o., MOR202 1 mg/kg i.v., vs vehicle control): 10%
Day of death (post-inoculation) Median (RAMOS cells; LEN 100 mg/kg (Table 14; Table 13: 50 mg/kg) p.o. once daily, MOR202 1 mg/kg i.v. twice weekly, study 98 days): 22 days
